Data reported in publication PMC8568133, “Evaluation of bisphenylthiazoles as a promising class for combating multidrug-resistant fungal infections” (PLoS ONE, 2021).
Values after ≈ are worked out from the molar mass of the structure shown. Where two headings read alike, the source gives them in different places.

Key:
Candida auris [1] = assay: Checkerboard assay of compound 17 with standard antifungals; assay type: cell-based; conditions: for Interpretation of interaction: antifungal combined with compound 17; for MIC Combined, Antifungal: antifungal in combination with compound 17; for MIC: Candidozyma auris, checkerboard, agent alone
Protocol: To evaluate the interactions between bisphenylthiazoles and the standard antifungal agents (fluconazole, amphotericin B, 5-fluorocytosine and caspofungin) against 2 C. auris clinical isolates, a standard checkerboard assay was utilized as described in previous studies. The fractional inhibitory concentration index (FICI) was calculated for each interaction. Interactions where the FICI was ≤0.5 were categorized as synergistic (SYN). FICI values of >0.5–1.25 were categorized as additive (ADD). FICI values of >1.25–4 were categorized as indifferent, and FICI values of > 4 were categorized as antagonistic. The experiment was repeated three independent times.

Cryptococcus neoformans = assay: Antifungal broth microdilution MIC (50% growth inhibition, 48 h); assay type: cell-based; conditions: Cryptococcus neoformans, read-out: MIC
Protocol: (§1) Serial dilutions (from 128 μg/mL to 0.06 μg/mL) of the tested compounds and control drugs (fluconazole, itraconazole and amphotericin) (in triplicates), were screened against clinical isolates of Candida albicans, Candida auris, Candida glabrata, Candida parapsilosis, Candida tropicalis, Candida krusei, Cryptococcus neoformans, Cryptococcus gattii and Aspergillus fumigatus species using the broth microdilution method according to the Clinical and Laboratory Standards Institute guidelines. MICs were determined as the lowest concentration of the compounds that inhibited the fungal growth by 50% after incubation at 35 °C for 24 h (for Candida and Aspergillus), or 48 h (for Cryptococcus). The minimum fungicidal concentration (MFC) of these compounds was tested by plating 4 μL from wells with no growth onto YPD agar plates. The plates were incubated at 37 °C for 24 hours before recording the MFC, which was categorized as the lowest concentration that reduced fungal growth by 99.9% [45]. The experiment was repeated three independent times.

Cryptococcus gattii = assay: as above; assay type: cell-based; conditions: Cryptococcus gattii, read-out: MIC
Protocol: as §1

Candida parapsilosis = assay: Antifungal broth microdilution MIC (50% growth inhibition); assay type: cell-based; conditions: Lodderomyces parapsilosis, read-out: MIC
Protocol: as §1

Candida strains = assay: Minimum fungicidal concentration, summary over Candida strains; assay type: cell-based; conditions: strains of Table 6
Protocol: as §1

[2] = system: Lactobacillus gasseri HM-400; assay: Broth microdilution MIC against normal human microbiota; assay type: cell-based; conditions: HM400
Protocol: (§2) Broth microdilution was utilized to determine the activity of bisphenylthiazoles against the human gut microflora as described elsewhere. A bacterial solution equivalent to 0.5 McFarland standards was prepared and diluted in MRS broth to achieve a bacterial concentration of approximately 5 x 10^5 CFU/mL. Then, compounds/control antifungals (in triplicates), were added to the plates and serially diluted with media containing bacteria. The plates were incubated for 48 hours at 37 °C before recording the MIC values. The experiment was repeated three independent times.

[3] = system: Lactobacillus crispatus HM-370; assay: as above; assay type: cell-based; conditions: HM370
Protocol: as §2

[4] = system: Lactobacillus casei ATCC-334; assay: as above; assay type: cell-based; conditions: Lacticaseibacillus casei, ATCC334
Protocol: as §2

Candida tropicalis = assay: Antifungal broth microdilution MIC (50% growth inhibition) and MFC; assay type: cell-based; conditions: Candida tropicalis, ATCC1369, C. tropicalis ATCC 1369; for MIC: read-out: MIC
Protocol: as §1

Candida krusei = assay: as above; assay type: cell-based; conditions: Pichia kudriavzevii; for MIC: read-out: MIC
Protocol: as §1

Candida albicans = assay: as above; assay type: cell-based; conditions: Candida albicans; for MIC: read-out: MIC
Protocol: as §1

Candida auris [5] = assay: as above; assay type: cell-based
Protocol: as §1

MRSA USA300 = system: MRSA USA300; parameters: method as in PMID 30247876; conditions: previous observations; cited from earlier work
[6] = parameters: method as in PMID 30247876; conditions: reactive metabolite formation, previous observations; cited from earlier work
[7] = Candida auris 381 (azole-sensitive)
[8] = Candida auris 385 (azole-resistant)
[9] = ATCC22019, C. parapsilosis ATCC 22019
[10] = ATCC34135, C. krusei ATCC 34135
[11] = ATCC10231, C. albicans ATCC 10231
[12] = C. albicans NR-29448 (fluconazole-resistant)
[13] = Candidozyma auris, C. auris 381, read-out: MIC
[14] = Candidozyma auris, C. auris 382, read-out: MIC
[15] = Candidozyma auris, C. auris 387, read-out: MIC
[16] = Candidozyma auris, Candida auris 389, read-out: MFC

Structure (SMILES) | Interpretation of interaction (Candida auris [1]; [7]) | MIC Combined, Antifungal (Candida auris [1]; [7]) [µg/mL] | Interpretation of interaction (Candida auris [1]; [8]) | MIC Combined, Antifungal (Candida auris [1]; [8]) [µg/mL] | MIC (Candida auris [1]; [7]) [µg/mL] | MIC (Candida auris [1]; [8]) [µg/mL] | MIC (Cryptococcus neoformans; C. neoformans NR 41298) [µg/mL] | MIC (Cryptococcus neoformans; C. neoformans NR 41300) [µg/mL] | MIC (Cryptococcus neoformans; C. neoformans NR 48770) [µg/mL] | MIC (Cryptococcus gattii; C. gattii NR 43209) [µg/mL] | MIC (Cryptococcus gattii; C. gattii NR 43210) [µg/mL] | MIC (Candida parapsilosis; [9]) [µg/mL] | MIC (Candida parapsilosis; C. parapsilosis CAB 502638) [µg/mL] | fungistatic or fungicidal activity (Candida strains) | MFC (Candida tropicalis) [µg/mL] | MIC (Candida tropicalis) [µg/mL] | MIC (Candida krusei; [10]) [µg/mL] | MFC (Candida krusei; C. krusei CAB 396420) [µg/mL] | MIC (Candida krusei; C. krusei CAB 396420) [µg/mL] | MFC (Candida albicans; [11]) [µg/mL] | other results
OC(Cn1cncn1)(Cn1cncn1)c1ccc(F)cc1F [Fluconazole, reference compound] | ADD (FICI values of >0.5–1.25 were categorized as additive (ADD)) | 1 | ADD (FICI values of >0.5–1.25 were categorized as additive (ADD)) | 0.25 | 1 | > 128 | 2 (≈ 6.53 µM) | 1 (≈ 3.27 µM) | 2 (≈ 6.53 µM) | 4 (≈ 13.1 µM) | 4 (≈ 13.1 µM) | 1 (≈ 3.27 µM) | 0.5 (≈ 1.63 µM) | fungistatic | > 128 | 0.5 (≈ 1.63 µM) | 16 (≈ 52.2 µM) | > 128 | 16 (≈ 52.2 µM) | > 128 | MIC ([2]; Lactobacillus gasseri): > 128 µg/mL; MIC ([3]; Lactobacillus crispatus): > 128 µg/mL; MIC [4]: > 128 µg/mL; MIC (Candida albicans; [11]): 1 µg/mL (≈ 3.27 µM); MIC (Candida albicans; [12]): > 128 µg/mL; MIC (Candida albicans; C. albicans SS5314 (wild-type)): 1 µg/mL (≈ 3.27 µM); MFC (Candida albicans; C. albicans NR-29448): > 128 µg/mL; MIC (Candida auris [5]; C. auris 383): >128 µg/mL; MIC (Candida auris [5]; C. auris 384): >128 µg/mL; MIC (Candida auris [5]; C. auris 385): >128 µg/mL; MIC (Candida auris [5]; C. auris 386): >128 µg/mL; MIC (Candida auris [5]; C. auris 389): >128 µg/mL; MIC (Candida auris [5]; C. auris 390): >128 µg/mL; MFC (Candida auris [5]; Candida auris 390): >128 µg/mL; MIC (Candida auris [5]; [13]): 1 µg/mL (≈ 3.27 µM); MIC (Candida auris [5]; [14]): 8 µg/mL (≈ 26.1 µM); MIC (Candida auris [5]; [15]): 8 µg/mL (≈ 26.1 µM); MFC (Candida auris [5]; [16]): > 128 µg/mL
C[C@@H]1[C@H](O)[C@@H](C)/C=C/C=C/C=C/C=C/C=C/C=C/C=C/[C@H](O[C@@H]2O[C@H](C)[C@@H](O)[C@H](N)[C@@H]2O)C[C@@H]2O[C@](O)(C[C@@H](O)C[C@@H](O)[C@H](O)CC[C@@H](O)C[C@@H](O)CC(=O)O[C@H]1C)C[C@H](O)[C@H]2C(=O)O [Amphotericin B, reference compound] | ADD (FICI values of >0.5–1.25 were categorized as additive (ADD)) | 1 | ADD (FICI values of >0.5–1.25 were categorized as additive (ADD)) | 1 | 1 | 1 | 1 (≈ 1.08 µM) | 1 (≈ 1.08 µM) | 0.5 (≈ 0.541 µM) | 1 (≈ 1.08 µM) | 0.5 (≈ 0.541 µM) | 0.5 (≈ 0.541 µM) | 0.5 (≈ 0.541 µM) | fungicidal | 2 (≈ 2.16 µM) | 1 (≈ 1.08 µM) | 2 (≈ 2.16 µM) | 2 (≈ 2.16 µM) | 2 (≈ 2.16 µM) | 1 (≈ 1.08 µM) | MIC ([2]; Lactobacillus gasseri HM-400, read-out: MIC): > 128 µg/mL; MIC ([3]; Lactobacillus crispatus HM-370, read-out: MIC): > 128 µg/mL; MIC ([4]; Lactobacillus casei ATCC-334, read-out: MIC): > 128 µg/mL; MIC (Candida albicans; [11]): 1 µg/mL (≈ 1.08 µM); MIC (Candida albicans; [12]): 1 µg/mL (≈ 1.08 µM); MIC (Candida albicans; C. albicans SS5314 (wild-type)): 1 µg/mL (≈ 1.08 µM); MFC (Candida albicans; C. albicans NR-29448): 2 µg/mL (≈ 2.16 µM); MFC (Candida auris [5]; Candida auris 390): 2 µg/mL (≈ 2.16 µM); MIC (Candida auris [5]; [13]): 1 µg/mL (≈ 1.08 µM); MIC (Candida auris [5]; [14]): 1 µg/mL (≈ 1.08 µM); MIC (Candida auris [5]; Candidozyma auris, C. auris 383, read-out: MIC): 1 µg/mL (≈ 1.08 µM); MIC (Candida auris [5]; Candidozyma auris, C. auris 384, read-out: MIC): 1 µg/mL (≈ 1.08 µM); MIC (Candida auris [5]; Candidozyma auris, C. auris 385, read-out: MIC): 1 µg/mL (≈ 1.08 µM); MIC (Candida auris [5]; Candidozyma auris, C. auris 386, read-out: MIC): 2 µg/mL (≈ 2.16 µM); MIC (Candida auris [5]; [15]): 1 µg/mL (≈ 1.08 µM); MIC (Candida auris [5]; Candidozyma auris, C. auris 388, read-out: MIC): 2 µg/mL (≈ 2.16 µM); MIC (Candida auris [5]; Candidozyma auris, C. auris 389, read-out: MIC): 2 µg/mL (≈ 2.16 µM); MIC (Candida auris [5]; Candidozyma auris, C. auris 390, read-out: MIC): 2 µg/mL (≈ 2.16 µM); MFC (Candida auris [5]; [16]): 2 µg/mL (≈ 2.16 µM)
Cc1nc(-c2ccc(-c3ccccc3)cc2)sc1-c1nnc(NN)o1 [Compound 1] |  |  |  |  |  |  |  |  |  |  |  |  |  |  |  |  |  |  |  |  | MIC (MRSA) (MRSA USA300): 3 µg/mL (≈ 8.59 µM); GSH trap [6]: +ve
